In US9247759B2, “Identification of human T2R receptors that respond to bitter compounds that elicit the bitter taste in compositions, and the use thereof in assays to identify compounds that inhibit (block) bitter taste in compositions and use thereof” (SENOMYX, INC., priority 2007, dated 2016):

Biological target: hT2R14 (Homo sapiens (Human), UniProt Q9NYV8)
Assay: hT2R14 antagonist high-throughput FLIPR assay, stable cell line with G16g44, agonist aristolochic acid
Type: cell-based
Conditions: Table B; read-out: hT2R14 IC50
Description: The inventors also used the automated fluorimetric […] system FLIPR using a slightly different protocol. A HEK293 cell line stably expressing G16gust44 was transfected with a hT2R expression plasmid, 24 hours later, the cells are loaded and analyzed on FLIPR.
After a ligand is identified for a particular hT2R, a HEK293 cell line stably expressing both the hT2R and G16gust44 are generated, facilitating future screening assays to identify other ligands that activate the particular hT2R or which modulate (block or enhance) the activation of this hT2R by another bitter ligand such as a bitter compound contained in coffee. This avoids the need for transient transfection.
To identify antagonists, cell lines stably expressing hT2R8 and hT2R14, respectively, together with the promiscuous chimeric G16g44 protein were generated as described in previous patent applications. A high-throughput assay was established using the stable cell lines and FLIPR (Fluorescent Imaging Plate Reader). An agonist of hT2R8 or hT2R14 was used to activate the receptors up to 70-80% of their respective maximal activity. For hT2R8, the agonist used was andrographolide (200 […]); for hT2R14, it was aristolochic acid (3 μM). To identify antagonists, compounds with diverse chemical structures were added together with the agonist.

Sequence of hT2R14 (Q9NYV8 whole entry): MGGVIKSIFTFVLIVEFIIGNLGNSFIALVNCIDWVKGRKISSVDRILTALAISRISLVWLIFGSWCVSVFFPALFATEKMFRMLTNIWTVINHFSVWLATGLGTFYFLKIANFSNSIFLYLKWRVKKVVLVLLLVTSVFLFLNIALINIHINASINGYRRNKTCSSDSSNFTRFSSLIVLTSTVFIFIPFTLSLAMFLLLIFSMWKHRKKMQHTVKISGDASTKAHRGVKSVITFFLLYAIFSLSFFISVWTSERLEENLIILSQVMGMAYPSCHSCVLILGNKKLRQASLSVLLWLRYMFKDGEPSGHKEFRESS

CC(C)CN(CC(C)C)S(=O)(=O)c1ccc(C(=O)O)cc1 [Compound 5-9, 4-(N,N-diisobutylsulfamoyl)benzoic acid] showed an IC50 of 15000 nM.

Same assay, conditions: Table C; read-out: hT2R14 IC50

COc1ccc(CN(CC2CCC(C(=O)O)CC2)C(=S)Nc2ccc(C)c(Cl)c2)cc1 (stereo not drawn) [Example 5-111, 4-((3-(3-chloro-4-methylphenyl)-1-(4-methoxybenzyl)thioureido)methyl) cyclohexanecarboxylic acid] and Cc1cc(NC(=S)N(Cc2ccccc2C)CC2CCC(C(=O)O)CC2)ccc1Cl (stereo not drawn) [Example 5-114, 4-((3-(4-chloro-3-methylphenyl)-1-(2-methylbenzyl)thioureido)methyl) cyclohexanecarboxylic acid] are within 1.5-fold of each other in IC50: 6140 nM for the first, 4870 nM for the second.

First: O=C(O)C1CCC(CN(Cc2ccc(F)cc2)S(=O)(=O)c2cccnc2)CC1 (stereo not drawn) [Example 5-52, 4-((N-(4-fluorobenzyl)pyridine-3-sulfonamido)methyl)cyclohexanecarboxylic acid]
Second: Nc1ccc(S(=O)(=O)N(Cc2ccc(F)cc2)CC2CCC(C(=O)O)CC2)cc1 (stereo not drawn) [Example 5-125, 4-((4-amino-N-(4-fluorobenzyl)phenylsulfonamido)methyl) cyclohexanecarboxylic acid]
The IC50 of the first is 5.1-fold higher: 8430 nM for the first, 1650 nM for the second. The second is the more potent here.

Compared with CCOC(=O)C1CCC(CN(Cc2ccccc2)S(=O)(=O)c2ccc(NC(C)=O)cc2)CC1 (stereo not drawn) [Example 5-115, ethyl 4-((4-acetamido-N-benzylphenylsulfonamido)methyl) cyclohexanecarboxylate], CCOC(=O)C1CCC(CN(Cc2ccccc2Cl)S(=O)(=O)c2ccc(C)cc2)CC1 (stereo not drawn) [Example 5-117, ethyl 4-((N-(2-chlorobenzyl)-4-methylphenylsulfonamido)methyl) cyclohexanecarboxylate] is 8.4-fold higher in IC50: 334 nM for the first, 2820 nM for the second. The first is the more potent here.

COc1ccc(S(=O)(=O)N(Cc2ccc(F)cc2)CC2CCC(C(=O)O)CC2)cc1 (stereo not drawn) [Example 5-123, 4-((N-(4-fluorobenzyl)-4-methoxyphenylsulfonamido)methyl) cyclohexanecarboxylic acid] and Cc1ccc(CN(CC2CCC(C(=O)O)CC2)S(=O)(=O)c2ccc(C)cc2)cc1 (stereo not drawn) [Example 5-126, 4-((4-methyl-N-(4-methylbenzyl)phenylsulfonamido)methyl) cyclohexanecarboxylic acid] are within 1.5-fold of each other in IC50: 92 nM for the first, 109 nM for the second.

Compared with COc1cccc(CN(Cc2ccccc2)S(=O)(=O)c2ccc(C(=O)O)cc2)c1 [Example 5-136, 4-(N-benzyl-N-(3-methoxybenzyl)sulfamoyl)benzoic acid], Cc1cccc(CN(Cc2ccccc2)S(=O)(=O)c2ccc(C(=O)O)cc2)c1 [Example 5-135, 4-(N-benzyl-N-(3-methylbenzyl)sulfamoyl)benzoic acid] is 2.6-fold lower in IC50: 5990 nM for the first, 2290 nM for the second. The second is the more potent here.

O=C(O)c1ccc(S(=O)(=O)N(Cc2ccccc2)Cc2ccc3c(c2)OCO3)cc1 [Example 5-148, 4-(N-(benzo[d][1,3]dioxol-5-ylmethyl)-N-benzylsulfamoyl)benzoic acid] and COc1ccc(CN(Cc2ccccc2)S(=O)(=O)c2ccc(C(=O)O)cc2)cc1C [Example 5-144, 4-(N-benzyl-N-(4-methoxy-3-methylbenzyl)sulfamoyl)benzoic acid] are within 1.5-fold of each other in IC50: 2170 nM for the first, 2000 nM for the second.

First: CCOC(=O)C1CCC(CN(Cc2cccc(Br)c2)S(=O)(=O)c2ccc3c(c2)OCCO3)CC1 (stereo not drawn) [Example 5-116, ethyl 4-((N-(3-bromobenzyl)-2,3-dihydrobenzo[b][1,4]dioxine-6-sulfonamido)methyl) cyclohexanecarboxylate]
Second: COc1cccc(CN(CC2CCC(C(=O)O)CC2)S(=O)(=O)c2ccc(C)cc2)c1 (stereo not drawn) [Example 5-128, 4-((N-(3-methoxybenzyl)-4-methylphenylsulfonamido)methyl) cyclohexanecarboxylic acid]
The IC50 of the first is 71-fold higher: 2570 nM for the first, 36 nM for the second.

Going from CCc1ccc(CN(CC2CCC(C(=O)O)CC2)C(=S)Nc2ccccc2C)cc1 (stereo not drawn) [Example 5-113, 4-((1-(4-ethylbenzyl)-3-o-tolylthioureido)methyl) cyclohexanecarboxylic acid] to Cc1ccc(S(=O)(=O)N(Cc2ccc(C#N)cc2)CC2CCC(C(=O)O)CC2)cc1 (stereo not drawn) [Example 5-127, 4-((N-(4-cyanobenzyl)-4-methylphenylsulfonamido)methyl) cyclohexanecarboxylic acid], the IC50 falls from 5020 nM to 499 nM (10-fold).

Going from COc1ccc(CN(C(C)c2ccccc2)S(=O)(=O)c2ccc(C(=O)O)cc2)cc1 (stereo not drawn) [Example 5-149, 4-(N-(4-methoxybenzyl)-N-(1-phenylethyl)sulfamoyl)benzoic acid] to COc1ccc(CN(Cc2ccccc2C)S(=O)(=O)c2ccc(C(=O)O)cc2)cc1 [Example 5-129, 4-(N-(4-methoxybenzyl)-N-(2-methylbenzyl)sulfamoyl)benzoic acid], the IC50 rises from 1400 nM to 5320 nM (3.8-fold).

COc1ccc2c(c1)C(c1ccccc1)N(S(=O)(=O)c1ccc(C(=O)O)cc1)CC2 (stereo not drawn) [Example 5-163, 4-(7-methoxy-1-phenyl-3,4-dihydroisoquinolin-2(1H)-ylsulfonyl)benzoic acid] and COc1ccc2c(c1)-c1ccccc1CN(S(=O)(=O)c1ccc(C(=O)O)cc1)C2 [Example 5-158, 4-(2-methoxy-5H-dibenzo[c,e]azepin-6(7H)-ylsulfonyl)benzoic acid] are within 1.5-fold of each other in IC50: 2880 nM for the first, 3570 nM for the second.

COc1ccc(CN(C2CCCc3ccccc32)S(=O)(=O)c2ccc(C(=O)O)cc2)cc1 (stereo not drawn) [Example 5-150, 4-(N-(4-methoxybenzyl)-N-(1,2,3,4-tetrahydronaphthalen-1-yl)sulfamoyl)benzoic acid] and COc1ccc(CN(Cc2ccccc2OC)S(=O)(=O)c2ccc(C(=O)O)cc2)cc1 [Example 5-121, 4-(N-(2-methoxybenzyl)-N-(4-methoxybenzyl)sulfamoyl)benzoic acid] are within 1.5-fold of each other in IC50: 2420 nM for the first, 2940 nM for the second.

First: N#Cc1ccccc1CN(Cc1ccccc1)S(=O)(=O)c1ccc(C(=O)O)cc1 [Example 5-147, 4-(N-benzyl-N-(2-cyanobenzyl)sulfamoyl)benzoic acid]
Second: Cc1ccccc1CN(Cc1ccccc1)S(=O)(=O)c1ccc(C(=O)O)cc1 [Example 5-140, 4-(N-benzyl-N-(2-methylbenzyl)sulfamoyl)benzoic acid]
The IC50 of the first is 1.6-fold higher: 4630 nM for the first, 2930 nM for the second. The second is the more potent here.

Compared with N#Cc1ccc(CN(Cc2ccccc2)S(=O)(=O)c2ccc(C(=O)O)cc2)cc1 [Example 5-146, 4-(N-benzyl-N-(4-cyanobenzyl)sulfamoyl)benzoic acid], O=C(O)c1ccc(S(=O)(=O)N(Cc2ccccc2)Cc2ccc(Cl)cc2)cc1 [Example 5-137, 4-(N-benzyl-N-(4-chlorobenzyl)sulfamoyl)benzoic acid] is 2.2-fold higher in IC50: 1850 nM for the first, 3980 nM for the second.

Compared with CCc1ccc(CN(Cc2ccccc2)S(=O)(=O)c2ccc(C(=O)O)cc2)cc1 [Example 5-143, 4-(N-benzyl-N-(4-ethylbenzyl)sulfamoyl)benzoic acid], CSc1ccc(CN(Cc2ccccc2)S(=O)(=O)c2ccc(C(=O)O)cc2)cc1 [Example 5-138, 4-(N-benzyl-N-(4-(methylthio)benzyl)sulfamoyl)benzoic acid] is 3.5-fold lower in IC50: 8580 nM for the first, 2460 nM for the second. The second is the more potent here.

Compound COc1ccc(CN(Cc2ccccc2)S(=O)(=O)c2ccc(C(=O)O)cc2)cn1 [Example 5-145, 4-(N-benzyl-N-((6-methoxypyridin-3-yl)methyl)sulfamoyl)benzoic acid] has an IC50 of 3260 nM.

Same assay, conditions: Table D; read-out: hT2R14 IC50

First: CCN(C)C(=O)CSc1nc(C)nc2c1c(=O)n(C)c(=O)n2C [Example 6-22, N-ethyl-N-methyl-2-(2,6,8-trimethyl-5,7-dioxo-5,6,7,8-tetrahydropyrimido[4,5-d]pyrimidin-4-ylthio)acetamide]
Second: Cc1nc(SCC(=O)N2CCCCC2)c2c(=O)n(C)c(=O)n(C)c2n1 [Example 6-24, 1,3,7-trimethyl-5-(2-oxo-2-(piperidin-1-yl)ethylthio)pyrimido[4,5-d]pyrimidine-2,4(1H,3H)-dione]
The IC50 of the first is 2.9-fold higher: 861 nM for the first, 292 nM for the second.

Compared with COc1cc(/C=C2\SC(=S)N(CCC(=O)O)C2=O)cc(OC)c1 [Example 6-13, (Z)-3-(5-(3,5-dimethoxybenzylidene)-4-oxo-2-thioxothiazolidin-3-yl)propanoic acid], Cn1c(=O)c2c(SCC(=O)NCc3ccccc3)ccnc2n(C)c1=O [Example 6-29, N-benzyl-2-(1,3-dimethyl-2,4-dioxo-1,2,3,4-tetrahydropyrido[2,3-d]pyrimidin-5-ylthio)acetamide] is 7.6-fold lower in IC50: 5380 nM for the first, 710 nM for the second.

Cn1c(=O)c2cc(S(=O)(=O)NC3CCCCC3)ccc2n(C)c1=O [Example 6-16, N-cyclohexyl-1,3-dimethyl-2,4-dioxo-1,2,3,4-tetrahydroquinazoline-6-sulfonamide] and Cc1nc2ccc(NS(=O)(=O)c3ccc4c(c3)n(C)c(=O)c(=O)n4C)cc2nc1C [Example 6-19, N-(2,3-dimethylquinoxalin-6-yl)-1,4-dimethyl-2,3-dioxo-1,2,3,4-tetrahydroquinoxaline-6-sulfonamide] are within 1.5-fold of each other in IC50: 7240 nM for the first, 6330 nM for the second.

CC(=O)CSc1nc(C2CCCC2)nc2c1c(=O)n(C)c(=O)n2C [Example 6-15, 7-cyclopentyl-1,3-dimethyl-5-(2-oxopropylthio)pyrimido[4,5-d]pyrimidine-2,4(1H,3H)-dione] and CNS(=O)(=O)c1ccc2[nH]c(=O)c(=O)[nH]c2c1 [Example 6-30, N-methyl-2,3-dioxo-1,2,3,4-tetrahydroquinoxaline-6-sulfonamide] are within 1.5-fold of each other in IC50: 5430 nM for the first, 6230 nM for the second.

Same assay, conditions: read-out: IC50 on hT2R14 bitter receptor

In the case of COc1ccc(CN(Cc2ccccc2)S(=O)(=O)c2ccc(C(=O)O)cc2)cc1OC [Example 5-39, 4-(N-benzyl-N-(3,4-dimethoxybenzyl)sulfamoyl)benzoic acid], the IC50 is reported as 678 nM.
